Results from patent US20250163054A1, “SUBSTITUTED BICYCLIC HETEROARYL COMPOUNDS USEFUL AS INHIBITORS OF TLR9” (Bristol-Myers Squibb Company, priority 2022, published 2025).

What was measured:
Format in all cases: cell-based
[1] = biological target: T1, human TLR9 (Homo sapiens, UniProt Q9NR96); test: TLR7/8/9 Inhibition Reporter Assays (TLR9); conditions: HEK-Blue cells overexpressing human TLR9, SEAP reporter, stimulated with TLR9 ligand ODN2006
T1 construct: host or cells: HEK-Blue cells (HEK293-derived reporter line)
T1 sequence (Q9NR96 26-1032): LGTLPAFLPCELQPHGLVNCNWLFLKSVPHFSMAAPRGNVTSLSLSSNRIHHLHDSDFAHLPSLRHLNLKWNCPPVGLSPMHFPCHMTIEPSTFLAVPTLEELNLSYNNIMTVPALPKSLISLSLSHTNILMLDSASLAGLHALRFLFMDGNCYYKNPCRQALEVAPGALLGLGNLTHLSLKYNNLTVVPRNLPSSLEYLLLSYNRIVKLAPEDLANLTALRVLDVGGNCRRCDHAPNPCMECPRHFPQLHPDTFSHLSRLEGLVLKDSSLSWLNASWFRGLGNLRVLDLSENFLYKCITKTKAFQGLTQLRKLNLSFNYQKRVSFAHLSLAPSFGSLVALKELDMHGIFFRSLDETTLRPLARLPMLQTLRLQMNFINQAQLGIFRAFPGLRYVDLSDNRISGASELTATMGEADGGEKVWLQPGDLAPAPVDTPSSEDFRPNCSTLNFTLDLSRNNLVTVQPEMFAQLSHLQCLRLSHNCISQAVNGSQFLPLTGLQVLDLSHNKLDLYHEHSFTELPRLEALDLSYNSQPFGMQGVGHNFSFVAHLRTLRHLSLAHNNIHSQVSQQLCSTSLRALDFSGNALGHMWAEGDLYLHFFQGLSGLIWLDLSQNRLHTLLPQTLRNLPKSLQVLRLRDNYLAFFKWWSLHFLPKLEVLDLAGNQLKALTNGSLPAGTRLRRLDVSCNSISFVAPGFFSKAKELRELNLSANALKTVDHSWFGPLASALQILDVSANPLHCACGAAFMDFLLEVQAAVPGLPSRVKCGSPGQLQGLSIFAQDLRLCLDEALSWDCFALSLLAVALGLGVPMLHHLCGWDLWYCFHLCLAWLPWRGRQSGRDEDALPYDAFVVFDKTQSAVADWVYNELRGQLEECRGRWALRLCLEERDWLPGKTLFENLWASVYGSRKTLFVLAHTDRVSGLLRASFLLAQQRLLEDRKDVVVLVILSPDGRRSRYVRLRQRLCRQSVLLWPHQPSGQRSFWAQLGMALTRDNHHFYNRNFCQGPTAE
Method: (§1) HEK-Blue™-cells (Invivogen) overexpressing human TLR7, TLR8 or TLR9 receptors were used for screening inhibitors of these receptors using an inducible SEAP (secreted embryonic alkaline phosphatase) reporter gene under the control of the IFN-β minimal promoter fused to five NF-κB and AP-1-binding sites. Cells are seeded into Greiner 384 well plates (15000 cells per well) that are predispensed (by ECHO) with testing compounds in DMSO to yield a final dose response concentration range of 0.85 nM-[…]. After a 60 minute compound pre-treatment in 37° C. incubator, the cells are then stimulated with a TLR7 ligand (gardiquimod at a final concentration of […]), TLR8 ligand (R848 at a final concentration of […]) or TLR9 ligand (ODN2006 at a final concentration of 200 nM) to activate NF-κB and AP-1 which induce the production of SEAP. After a 22 hour incubation at 37° C., 5% CO2, SEAP levels are determined with the addition of HEK-Blue™ Detection reagent (Invivogen), a cell culture medium that allows for detection of SEAP, according to manufacturer's specifications. The percent inhibition is determined as the % reduction in the HEK-Blue signal present in wells treated with agonist plus DMSO alone compared to wells treated with a known inhibitor.

[2] = biological target: T2, human TLR8 (Homo sapiens, UniProt Q9NR97); test: TLR7/8/9 Inhibition Reporter Assays (TLR8); conditions: HEK-Blue cells overexpressing human TLR8, SEAP reporter, stimulated with TLR8 ligand R848
T2 construct: host or cells: HEK-Blue cells (HEK293-derived reporter line)
T2 sequence (Q9NR97 27-1041): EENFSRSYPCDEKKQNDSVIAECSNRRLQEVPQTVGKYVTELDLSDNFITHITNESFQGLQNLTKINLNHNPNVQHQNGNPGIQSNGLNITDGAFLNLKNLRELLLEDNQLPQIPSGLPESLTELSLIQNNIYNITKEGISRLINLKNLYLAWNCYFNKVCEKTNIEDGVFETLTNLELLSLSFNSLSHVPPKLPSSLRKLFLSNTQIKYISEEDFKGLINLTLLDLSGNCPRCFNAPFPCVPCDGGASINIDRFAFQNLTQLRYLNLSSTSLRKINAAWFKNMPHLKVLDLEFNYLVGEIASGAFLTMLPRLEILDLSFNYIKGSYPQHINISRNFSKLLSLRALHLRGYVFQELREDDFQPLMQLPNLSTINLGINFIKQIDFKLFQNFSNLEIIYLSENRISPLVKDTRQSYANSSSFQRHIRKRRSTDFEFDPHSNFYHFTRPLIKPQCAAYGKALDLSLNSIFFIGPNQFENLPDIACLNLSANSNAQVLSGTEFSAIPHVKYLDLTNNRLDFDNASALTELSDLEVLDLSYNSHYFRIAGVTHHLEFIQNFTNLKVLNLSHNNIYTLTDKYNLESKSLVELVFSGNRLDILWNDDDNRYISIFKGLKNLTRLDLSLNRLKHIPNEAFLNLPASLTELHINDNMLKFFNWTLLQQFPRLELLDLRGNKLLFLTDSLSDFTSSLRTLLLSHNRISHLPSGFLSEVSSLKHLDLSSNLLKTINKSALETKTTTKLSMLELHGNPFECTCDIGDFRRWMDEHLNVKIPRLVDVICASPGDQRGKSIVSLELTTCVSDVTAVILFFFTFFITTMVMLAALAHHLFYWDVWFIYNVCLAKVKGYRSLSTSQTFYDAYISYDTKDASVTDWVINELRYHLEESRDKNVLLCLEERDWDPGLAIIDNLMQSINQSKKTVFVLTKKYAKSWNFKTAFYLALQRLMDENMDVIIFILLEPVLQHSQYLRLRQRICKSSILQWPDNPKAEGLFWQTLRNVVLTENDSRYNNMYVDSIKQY
Method: as §1

[3] = biological target: T3, human TLR7 (Homo sapiens, UniProt Q9NYK1); test: TLR7/8/9 Inhibition Reporter Assays (TLR7); conditions: HEK-Blue cells overexpressing human TLR7, SEAP reporter, stimulated with TLR7 ligand gardiquimod
T3 construct: host or cells: HEK-Blue cells (HEK293-derived reporter line)
T3 sequence (Q9NYK1 27-1049): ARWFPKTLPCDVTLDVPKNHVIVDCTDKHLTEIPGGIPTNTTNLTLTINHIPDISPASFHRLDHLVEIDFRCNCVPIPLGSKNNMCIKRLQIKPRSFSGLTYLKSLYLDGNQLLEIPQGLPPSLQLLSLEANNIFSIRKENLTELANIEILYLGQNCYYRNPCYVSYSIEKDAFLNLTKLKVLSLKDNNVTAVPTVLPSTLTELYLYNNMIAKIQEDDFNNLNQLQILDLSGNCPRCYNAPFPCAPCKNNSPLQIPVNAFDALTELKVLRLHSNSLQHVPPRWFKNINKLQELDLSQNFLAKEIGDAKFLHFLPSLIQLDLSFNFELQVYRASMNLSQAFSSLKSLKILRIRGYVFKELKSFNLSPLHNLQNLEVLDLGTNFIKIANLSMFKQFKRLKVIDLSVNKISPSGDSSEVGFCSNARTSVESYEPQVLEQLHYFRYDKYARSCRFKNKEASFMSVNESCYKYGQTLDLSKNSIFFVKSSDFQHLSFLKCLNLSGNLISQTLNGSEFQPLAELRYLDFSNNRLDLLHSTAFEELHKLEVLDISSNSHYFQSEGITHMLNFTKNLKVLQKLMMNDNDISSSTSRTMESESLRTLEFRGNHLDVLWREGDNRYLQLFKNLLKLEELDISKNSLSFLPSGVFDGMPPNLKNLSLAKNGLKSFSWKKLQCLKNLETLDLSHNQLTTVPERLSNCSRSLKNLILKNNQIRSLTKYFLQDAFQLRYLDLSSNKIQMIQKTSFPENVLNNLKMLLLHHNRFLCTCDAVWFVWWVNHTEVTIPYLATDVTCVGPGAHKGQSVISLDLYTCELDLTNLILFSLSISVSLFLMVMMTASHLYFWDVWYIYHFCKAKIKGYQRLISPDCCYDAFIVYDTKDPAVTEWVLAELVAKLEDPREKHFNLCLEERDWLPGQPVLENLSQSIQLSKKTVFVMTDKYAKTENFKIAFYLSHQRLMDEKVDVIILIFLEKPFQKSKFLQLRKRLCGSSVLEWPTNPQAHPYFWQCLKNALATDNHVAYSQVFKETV
Method: as §1

Row | SMILES | IC50 [1] [µM] | IC50 [2] [µM] | IC50 [3] [µM]
1 | Cn1c(-c2ccc(S(C)(=O)=O)cc2)nc2c(C(F)(F)F)nc(C3=CCN(C4CCN(CC(C)(C)O)CC4)CC3)cc21 [Example 37, 2-methyl-1-(4-(4-(1-methyl-2-(4-(methylsulfonyl)phenyl)-4-(trifluoromethyl)-1H-imidazo[4,5-c]pyridin-6-yl)-3,6-dihydropyridin-1(2H)-yl)piperidin-1-yl)propan-2-ol] | 1.1 | > 50 | 13
2 | Cn1c(-c2ccc(S(C)(=O)=O)cc2)nc2c(C(F)(F)F)nc(C3CCN(C4CCN(CC(C)(C)O)CC4)CC3)cc21 [Example 34, 2-methyl-1-(4-(1-methyl-2-(4-(methylsulfonyl)phenyl)-4-(trifluoromethyl)-1H-imidazo[4,5-c]pyridin-6-yl)-[1,4′-bipiperidin]-1′-yl)propan-2-ol] | 0.13 | > 50 | 3.5
3 | CC(C)N1CCC(N2CCC(c3cc4c(nc(-c5ccc(S(C)(=O)=O)cc5)n4C)c(C(F)(F)F)n3)CC2)CC1 [Example 3, 6-(1′-isopropyl-[1,4′-bipiperidin]-4-yl)-1-methyl-2-(4-(methylsulfonyl)phenyl)-4-(trifluoromethyl)-1H-imidazo[4,5-c]pyridine] | 0.11 | > 50 | 3.1
4 | Cc1nc(-c2ccc(C(=O)NC3CN(Cc4ccccc4)C3)cc2)cc2c1nc(-c1ccc(S(C)(=O)=O)cc1)n2C [Example 49, N-(1-benzylazetidin-3-yl)-4-(1,4-dimethyl-2-(4-(methylsulfonyl)phenyl)-1H-imidazo[4,5-c]pyridin-6-yl)benzamide] | 0.81 |  | 5.5
5 | Cn1c(-c2ccc(S(C)(=O)=O)cc2)nc2cnc(C3CCN(C4CCN(C5CC5)CC4)CC3)cc21 [Example 32, 6-(1′-cyclopropyl-[1,4′-bipiperidin]-4-yl)-1-methyl-2-(4-(methylsulfonyl)phenyl)-1H-imidazo[4,5-c]pyridine] | 0.13 |  | 

Next, values leading:

Row | IC50 [1] [µM] | IC50 [2] [µM] | IC50 [3] [µM] | SMILES
6 | 0.11 | > 50 | 5.8 | Cc1nc(-c2ccc(N3CCC(N4CCCC4)CC3)cc2)cc2c1nc(-c1ccc(S(C)(=O)=O)cc1)n2C [Example 41, 1,4-dimethyl-2-(4-(methylsulfonyl)phenyl)-6-(4-(4-(pyrrolidin-1-yl)piperidin-1-yl)phenyl)-1H-imidazo[4,5-c]pyridine]
7 | 0.23 | 41 | 6.1 | Cc1nc(-c2ccc(C3CCN(C)CC3)cc2)cc2c1nc(-c1ccc(S(C)(=O)=O)cc1)n2C [Example 26, 1,4-dimethyl-6-(4-(1-methylpiperidin-4-yl)phenyl)-2-(4-(methylsulfonyl)phenyl)-1H-imidazo[4,5-c]pyridine]
8 | 0.085 | > 50 | 1.8 | COCCN1CC2(C1)CN(c1ccc(-c3cc4c(nc(-c5ccc(OC)c(OC)c5)n4C)c(C)n3)cc1)C2 [Example 101, 2-(3,4-dimethoxyphenyl)-6-(4-(6-(2-methoxyethyl)-2,6-diazaspiro[3.3]heptan-2-yl)phenyl)-1,4-dimethyl-1H-imidazo[4,5-c]pyridine]
9 | 0.27 | 3 | 6.7 | CC(C)CN1CC2(CCN(c3ccc(-c4cc5c(cn4)nc(-c4ccc(S(C)(=O)=O)cc4)n5C4CC4)cc3)CC2)C1 [Example 86, 1-cyclopropyl-6-(4-(2-isobutyl-2,7-diazaspiro[3.5]nonan-7-yl)phenyl)-2-(4-(methylsulfonyl)phenyl)-1H-imidazo[4,5-c]pyridine]
10 | 0.11 | 3.9 | 0.89 | Cc1nc(-c2ccc(N3CCC4(CC3)CN(CC(C)C)C4)cc2)cc2c1nc(-c1ccc(S(C)(=O)=O)cc1)n2C [Example 73, 6-(4-(2-isobutyl-2,7-diazaspiro[3.5]nonan-7-yl)phenyl)-1,4-dimethyl-2-(4-(methylsulfonyl)phenyl)-1H-imidazo[4,5-c]pyridine]
11 | 2.3 |  | 6.6 | Cc1ccccc1C(=O)N1CCC(NCc2ccc(-c3cc4c(nc(-c5ccc(S(C)(=O)=O)cc5)n4C)c(C)n3)cc2)CC1 [Example 51, (4-((4-(1,4-dimethyl-2-(4-(methylsulfonyl)phenyl)-1H-imidazo[4,5-c]pyridin-6-yl)benzyl)amino)piperidin-1-yl)(o-tolyl)methanone]
